Test results taken from patent publication US10695311B2, “Solution for ophthalmology” (priority 2016, dated 2020).

Experiments:
[1] = system: zonula fibers and posterior capsule of donor eyes; assay: Experiments on donor eyes; details: the corneas of which were used for cornea transfers, L-lysine in the concentration indicated above (0.5-3.5 wt.-%)
From the text: (§1) The surgical result is therefore permanent; further procedures for treatment of possible capsule fibrosis are rarely or never necessary. The solution according to the invention can be used with every phacoemulsification, with or without lens implantation, to clean the posterior capsule. In this regard, the solution according to the invention can be produced from commercially available L-lysine. In particular, the solution can be present as a flushing solution.

[2] = system: lens capsule; assay: Surgical studies within the scope of extracapsular procedures; type: in vivo; details: L-lysine concentrations of up to 5%
From the text: as §1
When performing the extracapsular operation, it has proven to be practical to apply 1 to 5 ml of the L-lysine according to the invention to the posterior capsule after removal of the cloudy lens core and the subcapsular cortex layer (Cortex lentis), using an anterior-chamber cannula. After a sufficient period of action, the solution is suctioned away and rinsed off. In this regard, the period of action is primarily dependent on the concentration of the solution. For a solution with a concentration of 2 wt.-%, it lies between 30 s and 5 min, preferably at approximately 1 min. The period of action should not amount to more than 5 min, preferably not more than 3 min.

[3] = system: lens capsule and hemidesmosomes; assay: Studies by the inventor with lysine solutions (lens capsule / hemidesmosomes); details: lysine solutions having a lower concentration

In the case of `NCCCC[C@H](N)C(=O)O` [L-lysine], the “attack on zonula fibers and posterior capsule” value [1] was “neither the zonula fibers nor the posterior capsule are attacked”, the “integrity of lens capsule during and after the procedure” value [2] was “the lens capsule remained intact during and after the procedure” and the “prevention of capsule fibrosis after the procedures” value [2] was “it was possible to prevent capsule fibrosis after the procedures”. The “damage to the lens capsule” value [3] was “damage to the lens capsule does not occur” and the “digestion of the hemidesmosomes” value [3] was “digestion of the hemidesmosomes still takes place to a sufficient extent”.
